Structures can show the parent of a compound that is named as a salt.
Target: T1, AXL (Homo sapiens, UniProt P30530)
T1 construct: purchased Promega
T1 sequence (P30530 26-894): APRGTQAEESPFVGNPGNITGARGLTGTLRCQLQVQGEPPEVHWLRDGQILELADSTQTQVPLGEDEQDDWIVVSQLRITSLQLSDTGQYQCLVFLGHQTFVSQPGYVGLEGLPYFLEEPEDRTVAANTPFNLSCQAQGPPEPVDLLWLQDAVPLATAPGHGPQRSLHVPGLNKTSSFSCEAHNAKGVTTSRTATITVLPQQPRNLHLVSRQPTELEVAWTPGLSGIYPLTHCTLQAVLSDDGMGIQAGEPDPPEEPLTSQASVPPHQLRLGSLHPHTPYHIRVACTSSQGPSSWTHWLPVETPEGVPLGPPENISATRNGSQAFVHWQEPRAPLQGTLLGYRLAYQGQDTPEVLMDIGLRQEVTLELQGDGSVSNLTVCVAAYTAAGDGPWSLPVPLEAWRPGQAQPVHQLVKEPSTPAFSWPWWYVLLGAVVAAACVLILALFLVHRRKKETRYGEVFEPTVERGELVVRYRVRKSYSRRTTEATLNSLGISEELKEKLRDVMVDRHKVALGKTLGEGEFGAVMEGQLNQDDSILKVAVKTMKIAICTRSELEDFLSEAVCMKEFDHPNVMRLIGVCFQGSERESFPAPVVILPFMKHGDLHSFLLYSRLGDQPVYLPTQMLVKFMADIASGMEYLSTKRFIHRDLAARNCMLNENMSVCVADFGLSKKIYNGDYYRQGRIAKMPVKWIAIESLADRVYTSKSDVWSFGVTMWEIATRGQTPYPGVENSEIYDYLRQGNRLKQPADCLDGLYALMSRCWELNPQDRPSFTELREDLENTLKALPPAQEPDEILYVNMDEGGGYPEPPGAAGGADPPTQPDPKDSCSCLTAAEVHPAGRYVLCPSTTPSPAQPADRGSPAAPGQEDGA
Experiment: Assay of AXL inhibitory activity in vitro (Promega AXL Kinase Enzyme System, ADP-Glo)
Type: biochemical
Conditions: 50 μmol/L ATP, 30° C., 60 minutes
Description: AXL Kinase Enzyme System (kinase system) was purchased from Promega. Envision multi-label Analyzer (PerkinElmer).
The enzyme, substrate, ATP and inhibitors were diluted using the buffer solution in the kit.
The assay was carried out in duplicate. 1 μl of the inhibitors of each concentration gradient, 2 μl of the AXL enzyme (6 ng), and a 2 μl mixture of the substrate and ATP (50 μmol/L ATP, 0.2 μg/μL Axltide) were added to the microplate. […] After the reaction was completed, 5 μL of ADP-Glo reagent was added to each well. The system was further reacted at 30° C. for 40 minutes. After the reaction was completed, 10 μL of kinase detection reagent was added to each well and reacted at 30° C. for 30 minutes. The chemiluminescence was then read by the PerkinElmer Envision multi-label analyzer with an integration time of 0.5 seconds.
The original data was converted into an inhibition rate, and the IC50 value can be obtained by four-parameter curve fitting.

CCc1nc(C(N)=O)c(Nc2ccc(N3CCC4(CCN(C)CC4)CC3)c(OC)c2)nc1NC1CCOCC1 [Trifluoroacetate salt of compound A, reference compound]
IC50: 5.76 nM

— patent publication US20230141887A1, “CRYSTAL FORM OF DIAZASPIROPYRAN COMPOUND” (MEDSHINE DISCOVERY INC., priority 2020, published 2023)
